Assay results as given in patent US6583120B1, “Erythromycin derivative with antibiotic activity” (Zambon Group S.A., priority 1998, dated 2003).
≈ marks a conversion by molar mass, not a printed value.

Experiments:
[1] = system: Streptococcus pneumoniae UC 41; assay: In vivo therapeutic efficacy (PD50), experimental pulmonary infection in mice; conditions: pulmonitis
[2] = system: Streptococcus pyogenes C 203; assay: as above; conditions: for PD50: mice, pulmonary infection
Haemophilus influenzae = assay: In vitro antibacterial activity (MIC), Gram-negative; conditions: for MIC Range: 11 strains tested; for MIC50 / MIC90: Haemophilus influenzae
Branhamella catarrhalis = assay: as above; conditions: for MIC Range: 5 strains tested; for MIC50 / MIC90: Moraxella catarrhalis
Klebsiella pneumoniae = assay: as above; conditions: for MIC Range: 6 strains tested; for MIC50 / MIC90: Klebsiella pneumoniae
Escherichia coli = assay: as above; conditions: 3 strains tested
Streptococcus pneumoniae = assay: In vitro antibacterial activity (MIC), erythromycin-sensitive strains; conditions: for MIC Range: 18 strains tested, erythromycin-sensitive; for MIC50 / MIC90: Streptococcus pneumoniae
Streptococcus group A = assay: as above; conditions: for MIC Range: 15 strains tested, erythromycin-sensitive
Streptococcus agalactiae = assay: as above; conditions: for MIC Range: 4 strains tested, erythromycin-sensitive; for MIC50 / MIC90: Streptococcus agalactiae
Staphylococcus aureus = assay: as above; conditions: for MIC Range: 13 strains tested, erythromycin-sensitive; for MIC50 / MIC90: Staphylococcus aureus
[3] = system: recently clinically isolated, erythromycin-resistant strains of Streptococcus pneumoniae; assay: In vitro antibacterial activity (MIC), broth-scalar dilution micromethod, erythromycin-resistant clinical isolates; conditions: 18 h, 37° C.
[4] = oral single dose 24 hours before the infection
[5] = oral single dose 48 hours before the infection
[6] = oral single dose 1 hour after the infection
[7] = oral single dose 72 hours before the infection
[8] = Strain 871, erythromycin-resistant
[9] = Strain 1035, erythromycin-resistant
[10] = Strain 1047, erythromycin-resistant
[11] = Strain 1051, erythromycin-resistant
[12] = Strain 1188, erythromycin-resistant
[13] = Strain 1392, erythromycin-resistant
[14] = Strain 9114, erythromycin-resistant
[15] = Strain 9117, erythromycin-resistant

Structure (SMILES)	PD50 [2, 6]	MIC Range (Haemophilus influenzae)	MIC Range (Branhamella catarrhalis)	MIC50 (Branhamella catarrhalis)	MIC90 (Branhamella catarrhalis)	MIC Range (Klebsiella pneumoniae)	MIC50 (Klebsiella pneumoniae)	MIC90 (Klebsiella pneumoniae)	MIC Range (Streptococcus pneumoniae)	MIC50 (Streptococcus pneumoniae)	MIC90 (Streptococcus pneumoniae)	MIC50 (Streptococcus group A)	MIC90 (Streptococcus group A)	MIC Range (Streptococcus group A)	MIC Range (Streptococcus agalactiae)	MIC50 (Streptococcus agalactiae)	MIC90 (Streptococcus agalactiae)	MIC Range (Staphylococcus aureus)	MIC50 (Staphylococcus aureus)	MIC90 (Staphylococcus aureus)	other results
CC[C@H]1OC(=O)[C@H](C)[C@@H](O[C@H]2C[C@@](C)(OC)[C@@H](O)[C@H](C)O2)[C@H](C)[C@@H](O[C@@H]2O[C@H](C)C[C@H](N(C)C)[C@H]2O)[C@](C)(O)C[C@@H](C)CN(C)[C@H](C)[C@@H](O)[C@]1(C)O [Azithromycin]	5.32 µmol/kg	0.25 to 1 µg/mL	0.0078 to 0.0156 µg/mL	0.0156 µg/mL (≈ 0.0208 µM)	0.0156 µg/mL (≈ 0.0208 µM)	4 to 8 µg/mL	4 µg/mL (≈ 5.34 µM)	8 µg/mL (≈ 10.7 µM)	0.0156 to 0.5 µg/mL	0.0312 µg/mL (≈ 0.0417 µM)	0.0625 µg/mL (≈ 0.0834 µM)	0.0625 µg/mL (≈ 0.0834 µM)	0.125 µg/mL (≈ 0.167 µM)	0.0625 to 1 µg/mL	0.0312 to 0.25 µg/mL	0.0625 µg/mL (≈ 0.0834 µM)	0.25 µg/mL (≈ 0.334 µM)	0.5 to 1 µg/mL	0.5 µg/mL (≈ 0.668 µM)	1 µg/mL (≈ 1.34 µM)	PD50 [1, 4]: 16.45 µmol/kg; PD50 [1, 5]: 34.13 µmol/kg; therapeutic efficacy (duration of action in vivo), in words ([2]; 72 hours after administration): lose most of their efficacy; PD50 [2, 4]: 16.45 µmol/kg; PD50 [2, 5]: 34.13 µmol/kg; PD50 [2, 7]: >85.4 µmol/kg; MIC50 (Haemophilus influenzae): 0.5 µg/mL (≈ 0.668 µM); MIC90 (Haemophilus influenzae): 1 µg/mL (≈ 1.34 µM); MIC Range (Escherichia coli): 2 to 4 µg/mL; MIC [3, 8]: 2 µg/mL (≈ 2.67 µM); MIC [3, 9]: 2 µg/mL (≈ 2.67 µM); MIC [3, 10]: 4 µg/mL (≈ 5.34 µM); MIC [3, 11]: 64 µg/mL (≈ 85.4 µM); MIC [3, 12]: 8 µg/mL (≈ 10.7 µM); MIC [3, 13]: 16 µg/mL (≈ 21.4 µM); MIC [3, 14]: 32 µg/mL (≈ 42.7 µM); MIC [3, 15]: 64 µg/mL (≈ 85.4 µM)
CC[C@H]1OC(=O)[C@H](C)[C@@H](O[C@H]2C[C@@](C)(OC)[C@@H](O)[C@H](C)O2)[C@H](C)[C@@H](O[C@@H]2O[C@H](C)C[C@H](N(C)C)[C@H]2O)[C@](C)(OC)C[C@@H](C)C(=O)[C@H](C)[C@@H](O)[C@]1(C)O [Clarithromycin]	7.38 µmol/kg	2 to 8 µg/mL	0.0078 to 0.0156 µg/mL	0.0156 µg/mL (≈ 0.0209 µM)	0.0156 µg/mL (≈ 0.0209 µM)	64 µg/mL (≈ 85.6 µM)	64 µg/mL (≈ 85.6 µM)	64 µg/mL (≈ 85.6 µM)	0.0039 to 0.125 µg/mL	0.0156 µg/mL (≈ 0.0209 µM)	0.0156 µg/mL (≈ 0.0209 µM)	0.0156 µg/mL (≈ 0.0209 µM)	0.0156 µg/mL (≈ 0.0209 µM)	0.0078 to 0.25 µg/mL	0.0156 to 0.0625 µg/mL	0.0312 µg/mL (≈ 0.0417 µM)	0.0625 µg/mL (≈ 0.0836 µM)	0.125 to 0.25 µg/mL	0.25 µg/mL (≈ 0.334 µM)	0.25 µg/mL (≈ 0.334 µM)	therapeutic efficacy (duration of action in vivo), in words ([2]; administered 24 hours before the infection): lose most of their efficacy; PD50 [2, 4]: >85.6 µmol/kg; MIC Range (Escherichia coli): 16 to 64 µg/mL
CC[C@H]1OC(=O)[C@H](C)[C@@H](OC2CC(C)(OC)C(O)C(C)O2)[C@H](C)[C@@H](OC2OC(C)CC(N(C)C)C2O)[C@](C)(O)C[C@@H](C)/C(=N\OCCNCCCCCCNCc2nccs2)[C@H](C)[C@@H](O)[C@]1(C)O (stereo partly shown) [Compound A]	15.45 µmol/kg	1 to 8 µg/mL	0.0019 to 0.125 µg/mL	0.125 µg/mL (≈ 0.126 µM)	0.125 µg/mL (≈ 0.126 µM)	16 to 32 µg/mL	16 µg/mL (≈ 16.2 µM)	32 µg/mL (≈ 32.4 µM)	0.0019 to 0.25 µg/mL	0.0039 µg/mL (≈ 0.00395 µM)	0.0156 µg/mL (≈ 0.0158 µM)	0.0156 µg/mL (≈ 0.0158 µM)	0.0312 µg/mL (≈ 0.0316 µM)	0.0078 to 0.5 µg/mL	0.0078 to 0.25 µg/mL	0.0156 µg/mL (≈ 0.0158 µM)	0.25 µg/mL (≈ 0.253 µM)	0.25 to 1 µg/mL	0.5 µg/mL (≈ 0.506 µM)	0.5 µg/mL (≈ 0.506 µM)	PD50 [1, 4]: 16.39 µmol/kg; PD50 [1, 5]: 25.90 µmol/kg; therapeutic efficacy (duration of action in vivo), in words ([2]; 72 hours after administration): still effective; PD50 [2, 4]: 16.39 µmol/kg; PD50 [2, 5]: 25.90 µmol/kg; PD50 [2, 7]: 31.51 µmol/kg; MIC50 (Haemophilus influenzae): 4 µg/mL (≈ 4.05 µM); MIC90 (Haemophilus influenzae): 4 µg/mL (≈ 4.05 µM); MIC Range (Escherichia coli): 1 to 8 µg/mL; MIC [3, 8]: 0.5 µg/mL (≈ 0.506 µM); MIC [3, 9]: 2 µg/mL (≈ 2.02 µM); MIC [3, 10]: 2 µg/mL (≈ 2.02 µM); MIC [3, 11]: 1 µg/mL (≈ 1.01 µM); MIC [3, 12]: 2 µg/mL (≈ 2.02 µM); MIC [3, 13]: 4 µg/mL (≈ 4.05 µM); MIC [3, 14]: 0.25 µg/mL (≈ 0.253 µM); MIC [3, 15]: 0.25 µg/mL (≈ 0.253 µM)
CC[C@H]1OC(=O)[C@H](C)[C@@H](O[C@H]2C[C@@](C)(OC)[C@@H](O)[C@H](C)O2)[C@H](C)[C@@H](O[C@@H]2O[C@H](C)C[C@H](N(C)C)[C@H]2O)[C@](C)(O)C[C@@H](C)/C(=N\OCOCCOC)[C@H](C)[C@@H](O)[C@]1(C)O [Roxithromycin]	–	4 to 16 µg/mL	0.0312 to 0.0625 µg/mL	0.0312 µg/mL (≈ 0.0373 µM)	0.0625 µg/mL (≈ 0.0747 µM)	>64 µg/mL	> 64 µg/mL	> 64 µg/mL	0.0156 to 0.5 µg/mL	0.0625 µg/mL (≈ 0.0747 µM)	0.0625 µg/mL (≈ 0.0747 µM)	0.0625 µg/mL (≈ 0.0747 µM)	0.0625 µg/mL (≈ 0.0747 µM)	0.0312 to 1 µg/mL	0.0625 to 0.25 µg/mL	0.125 µg/mL (≈ 0.149 µM)	0.25 µg/mL (≈ 0.299 µM)	0.25 to 1 µg/mL	0.5 µg/mL (≈ 0.597 µM)	1 µg/mL (≈ 1.19 µM)	MIC50 (Haemophilus influenzae): 8 µg/mL (≈ 9.56 µM); MIC90 (Haemophilus influenzae): 8 µg/mL (≈ 9.56 µM)
